Experimental data taken from publication PMC9295786, “Discovery of potent BET bromodomain 1 stereoselective inhibitors using DNA-encoded chemical library selections” (Proceedings of the National Academy of Sciences of the …, 2022).
pEC50, pIC50, pKd: −log10 of the molar value.

Columns and labels:
[1] = target: T1, BRDT-BD2 (Homo sapiens, UniProt Q58F21); assay: AlphaScreen competition assay with biotinylated JQ1; assay type: binding; conditions: read-out: BRDT-BD2 IC50
T1 construct: two similar tandem bromodomains (BD1 and BD2); made in house; host or cells: bacteria (pET15b or pET28b vector)

[2] = target: T2, BRD4-BD2 (Homo sapiens, UniProt O60885); assay: as above; assay type: binding; conditions: read-out: BRD4-BD2 IC50
T2 construct: two similar tandem bromodomains (BD1 and BD2); made in house; host or cells: bacteria (pET15b or pET28b vector)

[3] = Metabolic stability assay in liver microsomes (MLM); assay type: in vitro ADME; conditions: mouse liver microsomes 0.5 mg protein/mL, compound 2.0 μM, NADPH 1.0 mM; read-out: MLM t1/2 (half-life)
[4] = Metabolic stability assay in liver microsomes (HLM); assay type: in vitro ADME; conditions: human liver microsomes 0.5 mg protein/mL, compound 2.0 μM, NADPH 1.0 mM; read-out: HLM t1/2 (half-life)
[5] = target: T3, BRD2-BD1 (Homo sapiens, UniProt P25440); assay: BromoKdELECT assay; assay type: binding
T3 construct: two similar tandem bromodomains (BD1 and BD2); purchased Eurofins DiscoverX (Fremont, CA); host or cells: E. coli host derived from the BL21 strain, T7 phage

[6] = target: T4, BRD2-BD2 (Homo sapiens, UniProt P25440); assay: BromoKdELECT assay; assay type: binding
T4 construct: two similar tandem bromodomains (BD1 and BD2); purchased Eurofins DiscoverX (Fremont, CA); host or cells: E. coli host derived from the BL21 strain, T7 phage

[7] = target: T5, BRD3-BD2 (Homo sapiens, UniProt Q15059); assay: BromoKdELECT assay; assay type: binding
T5 construct: two similar tandem bromodomains (BD1 and BD2); purchased Eurofins DiscoverX (Fremont, CA); host or cells: E. coli host derived from the BL21 strain, T7 phage

[8] = target: T6, BRD3-BD1 (Homo sapiens, UniProt Q15059); assay: BromoKdELECT assay; assay type: binding
T6 construct: two similar tandem bromodomains (BD1 and BD2); purchased Eurofins DiscoverX (Fremont, CA); host or cells: E. coli host derived from the BL21 strain, T7 phage

[9] = tested on: MV4;11 cells; assay: Cell viability by CellTiterGlo; assay type: cell-based; conditions: Homo sapiens, MV4-11
[10] = tested on: MOLM-13 cells; assay: Cell viability by CellTiterGlo; assay type: cell-based; conditions: Homo sapiens, MOLM-13; 72 h of treatment, CellTiterGlo, normalized to DMSO; read-out: Viability IC50 MOLM-13
[11] = tested on: THP1 cells; assay: Cell viability by CellTiterGlo; assay type: cell-based; conditions: Homo sapiens, THP-1; 72 h of treatment, CellTiterGlo, normalized to DMSO; read-out: Viability IC50 THP1
[12] = tested on: Kasumi1 cells; assay: Cell viability by CellTiterGlo; assay type: cell-based; conditions: Homo sapiens, Kasumi 1; 72 h of treatment, CellTiterGlo, normalized to DMSO; read-out: Viability IC50 Kasumi1
[13] = tested on: MV4;11 cells; assay: Cell cycle analysis by flow cytometry; assay type: cell-based; conditions: 24 h of treatment at the IC50
[14] = tested on: MOLM-13 cells; assay: Cell cycle analysis by flow cytometry; assay type: cell-based; conditions: 24 h of treatment at the IC50
[15] = tested on: MV4;11 cells; assay: Apoptosis detection (Annexin V) by flow cytometry; assay type: cell-based; conditions: 72 h of treatment
[16] = tested on: MOLM-13 cells; assay: Apoptosis detection (Annexin V) by flow cytometry; assay type: cell-based; conditions: 72 h of treatment
[17] = tested on: MYC expression in MOLM-13 cells; assay: MYC expression by RT-qPCR; assay type: cell-based; conditions: 8 h of treatment
[18] = tested on: MYC expression in MV4;11 cells; assay: MYC expression by RT-qPCR; assay type: cell-based; conditions: 8 h of treatment
[19] = target: T7, BRD4-BD1 (Homo sapiens, UniProt O60885); assay: AlphaScreen competition assay with biotinylated JQ1; assay type: binding; design: the bromodomain 1 (BD1) of BRD4; made in house; host or cells: bacteria (pET15b or pET28b vector)
[20] = target: T8, BRDT-BD1 (Homo sapiens, UniProt Q58F21); assay: as above; assay type: binding; design: the first bromodomain of BRDT (BRDT-BD1); made in house; host or cells: bacteria (pET15b or pET28b vector)
[21] = target: T7, BRD4-BD1; assay: BromoKdELECT assay; assay type: binding; design: the bromodomain 1 (BD1) of BRD4; purchased Eurofins DiscoverX (Fremont, CA); host or cells: E. coli host derived from the BL21 strain, T7 phage
[22] = target: T8, BRDT-BD1; assay: BromoKdELECT assay; assay type: binding; design: the first bromodomain of BRDT (BRDT-BD1); purchased Eurofins DiscoverX (Fremont, CA); host or cells: E. coli host derived from the BL21 strain, T7 phage

T6 sequence (Q15059 34-140 limits assumed): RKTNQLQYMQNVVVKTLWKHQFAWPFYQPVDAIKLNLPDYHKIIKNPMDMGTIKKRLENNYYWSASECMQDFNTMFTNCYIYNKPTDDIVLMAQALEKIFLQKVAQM
T3 sequence (P25440 74-180 limits assumed): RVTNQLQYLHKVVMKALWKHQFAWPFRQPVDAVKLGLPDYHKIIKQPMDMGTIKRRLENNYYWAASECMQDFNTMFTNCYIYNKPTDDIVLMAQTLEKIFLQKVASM
T4 sequence (P25440 344-453 limits assumed): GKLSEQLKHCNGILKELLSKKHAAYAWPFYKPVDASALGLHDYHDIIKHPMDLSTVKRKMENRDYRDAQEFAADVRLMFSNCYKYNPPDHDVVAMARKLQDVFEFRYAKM
T5 sequence (Q15059 306-415 limits assumed): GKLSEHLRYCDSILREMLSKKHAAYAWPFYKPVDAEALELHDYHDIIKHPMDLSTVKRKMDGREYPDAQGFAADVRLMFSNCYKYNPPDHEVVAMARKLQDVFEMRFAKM

`CNC(=O)[C@@H](CC1CCN(C(=O)Cc2ccc3[nH]c(=O)cc(C)c3c2)CC1)NC(=O)c1ccc(-c2ccc(C)cc2C)cn1` [CDD-787] gave a pIC50 [1] of 4.98, a pIC50 [2] of 4.89 and a half-life at 2 μM [3] of 13 min. It also gave a half-life at 2 μM [4] of 33 min, a pKd ([5]; BromoKdELECT) of 9.59 and a pIC50 ([5]; BromoKdELECT, read-out: IC50 against BRD2-BDT1) of 9.59. It also gave a BRD2-BD1 selectivity ([5]; over BRD2-BD2, BromoKdELECT Kd ratio) of 420 fold, a pKd [6] of 6.96 and a pKd [7] of 6.11. The pKd ([8]; BromoKdELECT) was 9.89, the pIC50 ([8]; BromoKdELECT, read-out: IC50 against BRD3-BD1) was 9.89 and the BRD3-BD1 selectivity ([8]; over BRD3-BD2, BromoKdELECT Kd ratio) was 5,920 fold. It also gave a pIC50 ([9]; 72 h of treatment, CellTiterGlo, normalized to DMSO, read-out: Viability IC50 MV4;11) of 8.08, a pEC50 ([9]; Table S6, NE = not efficient, read-out: MV4-11 EC50 (viability)) of 8.10 and a pIC50 [10] of 7.80. For the same molecule, the pIC50 [11] was 7.93, the pIC50 [12] was 8.08 and the “Effect on the cell cycle, MV4;11” value [13] was “G1 arrest”. For the same molecule, the “Effect on the cell cycle, MOLM-13” value [14] was “G1 arrest”, the “Induction of apoptosis (Annexin V+ cells), MV4;11” value [15] was “apoptosis” and the “Induction of apoptosis (Annexin V+ cells), MOLM-13” value [16] was “apoptosis”. The “MYC expression, MOLM-13” value [17] was “suppressed”, the “MYC expression, MV4;11” value [18] was “suppressed” and the “BRD4-BD1 vs. BRD4-BD2 fold (BRD4-BD1 selectivity)” value ([19]; ratio of AlphaScreen IC50 values, NE = not efficient) was 3909 fold. For the same molecule, the pIC50 ([19]; read-out: BRD4-BD1 IC50) was 8.48, the pIC50 [20] was 8.68 and the “fold more potent than the S-enantiomer (CDD-786) in inhibiting BRDT-BD1” value [20] was 50 fold. For the same molecule, the “fold more potent than (+)-JQ1 for BRDT-BD1” value ([20]; AlphaScreen) was 22 fold, the “fold more selective than (+)-JQ1 for BRDT-BD1” value ([20]; AlphaScreen) was ~2,200 fold and the pKd [21] was 9.54. It also gave a pIC50 ([21]; read-out: IC50 against BRD4-BD1) of 9.54, a pKd [22] of 9.66 and a pIC50 ([22]; read-out: IC50 against BRDT-BD1) of 9.66.
